Data on 6 molecules can be found in patent US7803557B2, “Methods for identification of eicosapentaenoic acid analogs using anti-inflammatory receptors” (The Brigham and Women's Hospital, Inc., priority 2003, dated 2010).

Where two headings read alike, the source gives them in different places.

For one data set, the system named is mouse splenic CD11c+ DCs. The data set is described as follows: IL-12p40 production by isolated splenic CD11c+ DCs stimulated with STAg. It is filed as cell-based. As to the method:
(§1) Experiments were performed essentially as in (19). STAg was prepared from sonicated T. gondii (RH strain) tachzoytes. For isolated DC experiments, 70-85% CD11c positive DCs were isolated from spleen. CD11c+DC suspensions (1.0×10^6 cells/ml) were spread into 96-well plates and incubated for 24 h with Resolvin E1 before the addition of STAg ([…]). After overnight culture, supernatants were collected and IL-12p40 was measured with a sandwich ELISA. For in vivo treatments, C57BL/6 mice (n=3 per group) were injected intravenously with 100 ng Resolvin E1. After 18 h the animals were challenged intraperitoneally with PBS (0.2 ml/mouse), STAg (5 mg/ml) and sacrificed after an additional 6 h. CD11c+DCs were isolated from spleen and IL12-p40 secretion was measured at 24 h. For DC migration, Splenic frozen section from mice treated as above but given […] of Resolvin E1 or vehicle were stained for CD11c and counterstained with hematoxylin.
Chemically synthesized siRNA for mouse Reso ER1 (5′-[…]dTdT-3′) and Non-specific control IX siRNA (5′-[…]-3′) were from Dharmacon Research. Spleen cells (1.0×10^6 cells/ml) were transfected using Chariot (Active Motif) following manufacturers' instructions. Briefly, siRNA was mixed with Chariot transfection reagent and incubated at room temperature for 30 minutes. […]

The test system of a further data set is splenic CD11c+ DCs. Description: In vivo activation of spleen dendritic cells with pathogen extract (STAg). As to conditions: STAg challenge. Further details: species or system mouse; DC migration into T cell areas of the spleen: dose or concentration left out as unconfirmed. As to the method: as §1
The subject of data set [1] is mock-transfected HEK293 cells. The data set is described as follows: MAP kinase (ERK) activation in mock-transfected HEK293 cells. In kind it is cell-based, human. As to conditions: 100 nM. As to the method: (§2) MAP kinase activation in monocytes and HEK293 cells after treatment with 100 nM of each compound was determined. After incubations, cells were lysed in cold lysis buffer (50 mM Tris-HCl, pH 8.0, 150 mM NaCl, 0.5 mM EDTA, 1.0% NP-40, 0.5% sodium deoxycolate, 10 mM NaF, 10 mM sodium pyrophosphate) containing protease inhibitor cocktail (Sigma). […] of protein was separated on SDS-PAGE and immunoblot was performed using anti-phospho-p44/42 MAP kinase (Cell Signaling) and anti-ERK (Santa Cruz) antibodies. For PTX treatment, HEK-Reso ER1 cells were incubated with or without PTX (200 ng/ml) for 24 h at 37° C. and ERK activation was monitored by addition of Resolvin E1 (100 nM) for 5 min.

The nature of data set [2]: LC-MS/MS analysis of Resolvin E1 in human plasma. It is filed as in vivo. As to conditions: oral, healthy human volunteers given EPA and aspirin, 6 donors. As to the method: Human plasma samples were collected at 4 hours after oral administration of fish oil supplement (Fish Oil Concentrate, Walgreens) containing EPA (1 g) and DHA (0.7 g) followed by aspirin (160 mg) at 3 h in six healthy volunteers. Plasma samples were extracted by C18 solid phase extraction with d4-LTB4 (Cascade) as internal standard for LC-MS/MS analysis (7) using a Finnigan LCQ liquid chlomatography ion trap tandem mass spectrometer equipped with a LUNA C18-2 (100×2 mm×[…]) column and UV diode array detector using mobile phase (methanol:water:acetate at 65:35:0.01) from 0 to 8 min, ramped to methanol 8 to 30 min, with a 0.2 ml/min flow rate.

Data set [3] deals with T1, Reso ER1 (Homo sapiens, UniProt Q99788).
T1 sequence (Q99788 1-373): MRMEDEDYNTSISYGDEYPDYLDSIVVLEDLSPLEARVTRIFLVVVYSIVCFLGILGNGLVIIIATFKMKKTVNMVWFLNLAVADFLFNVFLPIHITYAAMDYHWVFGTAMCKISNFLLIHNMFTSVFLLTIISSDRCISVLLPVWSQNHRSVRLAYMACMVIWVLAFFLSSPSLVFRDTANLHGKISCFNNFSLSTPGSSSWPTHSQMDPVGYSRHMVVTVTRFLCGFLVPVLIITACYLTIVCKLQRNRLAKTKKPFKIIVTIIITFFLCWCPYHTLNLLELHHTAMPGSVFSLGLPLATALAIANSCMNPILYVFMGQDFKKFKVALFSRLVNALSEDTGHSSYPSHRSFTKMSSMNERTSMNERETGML
Description: NF-kB reporter gene assay, HEK293 cells transfected with Reso ER1. In kind it is cell-based. Further details: expressed in transfected cells; host or cells: HEK293, transient transfection with pcDNA3-Reso ER1. As to the method:
HEK293 cells (1.0′10^5 cells) were transiently transfected with 50 ng pNF-kB-luciferase (Stratagene), 500 ng of either pcDNA3 or pcDNA3-GPCRs and the internal standard pRL-TK (Promega) using Superfect transfection reagent (Qiagen). After 24 h, cells were exposed to the test compounds for 30 min, stimulated with recombinant human TNF-a (1.0 ng/ml, BD Pharmingen) for 5 h. Luciferase activity was measured by the Dual-Luciferase reporter assay system (Promega). Basal induction of luciferase activity by TNF-a was >150-fold in this system. Efficient expression of GPCRs to the cell surface was observed by immunostaining using HA-tagged GPCR constructs. For PTX treatment, HEK293 cells were treated with PTX (200 ng/ml) for 24 h before stimulation.
(§3) FIG. 4d illustrate effects of PTX on Resolvin E1 induced activation and NF-kB inhibition. In—(a) HEK-hReso ER1 cells were incubated with or without PTX (200 ng/ml) for 24 h at 37 C and ERK activation was monitored by addition of Resolvin E1 (100 nM) for 5 min. In (b) HEK293 cells were transiently transfected with pcDNA-hReso ER1, pNF-kB-luciferase and pRL-TK. After 24 h with or without PTX (200 ng/ml), cells were exposed to Resolvin E1 (50 nM) for 30 min, stimulated with TNF-a (1.0 ng/ml) for 5 h, and luciferase activity was measured.

Data set [4] relates to human peripheral blood monocytes. Description: Calcium mobilization in human peripheral blood monocytes. It is filed as cell-based.
Data set [5] deals with leukocyte infiltration in zymosan-induced peritonitis. Description: Zymosan induced peritonitis (leukocyte infiltration). It is filed as in vivo, mouse. As to conditions: for inhibition of leukocyte recruitment: 100 ng/mouse intravenously, 2 h. As to the method: For peritonitis, 100 ng/mouse of Resolvin E1 or related structures was injected into tail vein and followed by 1 ml zymosan A (1 mg/ml) into the peritoneum. Peritoneal lavages were collected at 2 h and cells were enumerated.
18R-HEPE (100 ng), Resolvin E1 (100 ng), or Indomethacin (100 ng) was injected intravenously into mouse tails followed by zymosan A into the peritoneum. Mice were sacrificed, and peritoneal lavages were collected (2 h) and cells enumerated (n=3).

Data set [6] deals with recombinant LTB4 receptor BLT 1 (Homo sapiens, UniProt Q15722). As to conditions: higher concentrations; reference (7); cited from earlier work.
The subject of the next data set is HEK293-Reso ER1 cells. The data set is described as follows: MAP kinase (ERK) activation in HEK293-Reso ER1 cells. It is filed as cell-based, human. As to the method:
as §2, §3

For data set [7], the system named is peripheral blood monocytes. Description: MAP kinase (ERK) activation in peripheral blood monocytes. It is filed as cell-based, human. The note with it: 100 nM. As to the method: as §2
Data set [8] relates to leukocyte infiltration in TNF-a induced dorsal air pouch. Description: Murine dorsal air-pouch model (TNF-a induced leukocyte infiltration). It is filed as in vivo, mouse. Further details: inhibition of leukocyte recruitment: dose or concentration left out as unconfirmed. As to the method:
Dorsal air pouches were raised on male FvB mice (6-8 wk) by injecting 3 ml of sterile air subcutaneously on days 0 and 3. On day 6, 100 ng/mouse of compounds were injected into tail vein. Inflammation in the air-pouch was induced by intrapouch injection of mouse recombinant TNF-a (100 ng/pouch), and pouch lavages were collected at 4 h and cells were enumerated.

For data set [9], the target named is T1, Reso ER1. The data set is described as follows: [35S]-GTPgS binding assay, membranes expressing Reso ER1. In kind it is biochemical. Further details: expressed in transfected cells. The note with it: isolated membranes from cells expressing Reso ER1; concentration-dependent. As to the method:
HEK293 cells stably expressing human Reso ER1 were homogenized in ice-cold TED buffer (20 mM Tris-HCl pH7.5/1 mM EDTA/5 mM MgCl2/1 mM DTT). Membrane fraction ([…]) was incubated in […] of GTP-binding buffer (50 mM Hepes, pH7.5/100 mM NaCl/1 mM EDTA/5 mM MgCl2/1 mM DTT) containing 0.1 nM [^35S]-GTPgS (>1000 Ci/mmol, Amersham) and […] for 30 min at 30° C. The bound and unbound [35S]-GTPgS was separated by rapid filtration through GF/C filters, and counted by liquid scintillation. Nonspecific binding was determined in the presence of […] unlabeled GTPgS. Basal [^35S]-GTP-gS binding was 81.6+1.5 cpm/mg protein.

Data set [10] concerns HEK-Reso ER1 stable transformants. Description: Calcium mobilization in HEK-Reso ER1 stable transformants. In kind it is cell-based, human.
Data set [11] concerns leukocyte infiltration in TNF-a induced dorsal air pouch. As to conditions: 1.0 mg/mouse, reference (9); cited from earlier work.

Chain of recombinant LTB4 receptor BLT 1 (Q15722 whole entry): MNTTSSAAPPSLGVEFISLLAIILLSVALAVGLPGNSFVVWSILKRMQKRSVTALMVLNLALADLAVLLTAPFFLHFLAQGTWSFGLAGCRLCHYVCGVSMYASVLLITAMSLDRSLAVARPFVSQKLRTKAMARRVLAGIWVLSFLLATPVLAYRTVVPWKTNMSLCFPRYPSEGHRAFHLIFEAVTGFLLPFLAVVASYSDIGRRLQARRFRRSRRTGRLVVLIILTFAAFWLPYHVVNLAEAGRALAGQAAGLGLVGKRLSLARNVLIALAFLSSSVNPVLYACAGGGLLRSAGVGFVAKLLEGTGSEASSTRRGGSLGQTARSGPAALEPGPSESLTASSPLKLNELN

As for `CC[C@@H](O)/C=C/C=C\C[C@@H](O)/C=C/C=C/C=C\[C@@H](O)CCCC(=O)O` [Resolvin E1, 5S,12R,18R-trihydroxy-6Z,8E,10E,14Z,16E-eicosapentaenoic acid], the “IL-12p40 production by STAg” value in the data set on mouse splenic CD11c+ DCs (isolated mouse splenic CD11c+ DCs, within the nanomolar range) was “markedly inhibited”. For the same molecule, in the data set on mouse splenic CD11c+ DCs (spleen cells transfected with siRNA, STAg stimulation), the “action in regulating IL-12 production from DCs after siRNA specific for mouse Reso ER1” value is “eliminated”. The “IL-12 production in vivo” value with splenic CD11c+ DCs (100 ng intravenously, IL-12p40 from splenic CD11c+ DCs) is “blocked IL-12 production”. Moreover, the “DC migration into T cell areas of the spleen” value with splenic CD11c+ DCs (Resolvin E1, CD11c staining) is “blocked”. Further, the “phosphorylation of ERK MAP kinase” value in data set [1] is recorded as “not in mock-transfected HEK293 cells”; with HEK293-Reso ER1 cells (100 nM, HEK293-Reso ER1 cells) it was “increased phosphoryation”; in [7] it was “increased phosphoryation”. This molecule came in with a concentration at 4 h in data set [2] of 0.1 to 0.4 ng/mL. Further, on Reso ER1 [3] (read-out: EC50, inhibition of TNF-a induced NF-kB activation), the EC50 is roughly 1 nM. For the same molecule, the “inhibition of calcium mobilization by 100 nM LTB4” value in [4] (100 nM, data not shown, cell type not restated) is reported as “did not inhibit calcium mobilization”. Further, the calcium mobilization result in data set [4] (human peripheral blood monocytes) and in data set [10] was “did not evoke a calcium mobilization” in each case. For the same molecule, in data set [5], the “inhibition of leukocyte recruitment” value is given as 50-60%. In addition, in [6], the “concentration at which it interacts with recombinant BLT1” value is given as roughly 0.5 mM. The “Resolvin E1 dependent ERK activation after pertussis toxin” value in the data set on HEK293-Reso ER1 cells (PTX 200 ng/ml 24 h, Resolvin E1 100 nM, 5 min) is “abolished”. Further, in data set [8] (100 ng/mouse, tail vein, TNF-a induced dorsal air pouch), the “inhibition of leukocyte infiltration” value was 50-70%. Moreover, the “specific [35S]-GTPgS binding” value at Reso ER1 [9] was “increased selectively”.
`C[C@@H]1C[C@H]2[C@@H]3CCC4=CC(=O)C=C[C@]4(C)[C@@]3(F)[C@@H](O)C[C@]2(C)[C@@]1(O)C(=O)CO` [dexamethasone, reference compound]: the “inhibition of leukocyte recruitment” value in [8] (local administration, dorsal air pouch) worked out at 60%.
For `COc1ccc2c(c1)c(CC(=O)O)c(C)n2C(=O)c1ccc(Cl)cc1` [indomethacin, reference compound], in data set [5], the “inhibition of leukocyte recruitment” value worked out at 25%.
On to `CC[C@H](O)/C=C/C=C\C[C@@H](O)/C=C/C=C/C=C\[C@@H](O)CCCC(=O)O` (single isomer, unassigned) [18S isomer], for which the “activity compared with native Resolvin E1 containing 18R” value in [5] is “essentially equivalent activity”.
Take `CCC(O)C=CC=CCC(O)C=CC=CC=CC(O)CCCC(=O)O` (single isomer, unassigned) [6-trans,14-trans isomer]: the “reduced potency for reducing leukocyte infiltration” value in data set [5] (versus Resolvin E1) is roughly 70%.
Regarding `CC(=O)Oc1ccccc1C(=O)O` [aspirin, reference compound], the inhibition at 1000 µM on Reso ER1 [3] (HEK293, 1 mM, read-out: non-receptor dependent inhibition of NF-kB) came to 26.2%. For the same molecule, the “inhibition of leukocyte recruitment” value in data set [11] is recorded as 70%.
